These results are taken from US8796264B2, “2-piperazin-1-yl-4H-1,3-benzothiazin-4-one derivatives and their use for the treatment of mammalian infections” (Ecole Polytechnique Federale de Lausanne (EPFL), priority 2010, dated 2014).

Molecules are shown by their SMILES. Converted amounts (≈) assume the structure as drawn. Where only a bound is given, the exact number is not on record here.

The nature of series [1]: Intrinsic clearance in liver microsomes. The settings on record: microsomes. On the procedure: Next, PBTZ169 and BTZ043 were incubated at a concentration of 1 μg/mL with 0.1 mg of human or mouse liver microsomes (Invitrogen) in order to measure their intrinsic clearance. The relative amounts of the original compound remaining over time were determined by HPLC.
The test system of another series is M. tuberculosis H37Rv. The series is described as follows: In vitro inhibitory activity, resazurin reduction assay (MIC99). The settings on record: Mycobacterium tuberculosis, H37RV; resazurin reduction assay (MIC99); read-out: typical MIC values, M. tuberculosis H37Rv. It is filed as cell-based, Mycobacterium tuberculosis.
The subject of a further series is M. smegmatis. The description is as above. The following applies: Mycolicibacterium smegmatis, read-out: typical MIC values, M. smegmatis. Format: cell-based, Mycobacterium smegmatis.
The subject of series [2] is Corynebacterium glutamicum ATCC13032. Nature of the series: In vitro inhibitory activity against actinobacteria (MIC). Format: cell-based. The following applies: read-out: typical MIC values, Corynebacterium glutamicum ATCC13032.
Series [3] deals with M. tuberculosis strain H37Rv. Nature of the series: In vivo efficacy in the chronic murine TB model. The arrangement: species or system mice. The following applies: 50 mg/kg by gavage once daily, six-times/week, 4 weeks.
The nature of series [4]: Acute toxicity after administration per os. The following applies: mouse, in vivo, mice. On the procedure: The compounds of the invention are non-toxic after administration per os of doses ranging up to 2000 mg/kg. The compound was well tolerated by animals in the first 24 hours after introduction. […] There were no cases of animal death. LD50 for compounds (2) and (18) is >2000 mg/kg.

Series [5] concerns M. tuberculosis strain H37Rv. Nature of the series: In vivo efficacy in the acute murine TB model. The following applies: for Log of CFU lungs: 4 weeks treatment, intragastric 5 times a week; for Log of CFU lungs / Medium longevity (days) M ± SEM: compounds and BTZ043 50 mg/kg, isoniazid 25 mg/kg; for Result of treatment, macroscopic condition of the lungs: treatment for prescribed time. The arrangement: species or system mice.

With `NC(=O)N1c2ccccc2C=Cc2ccccc21` [Carbamazepine], the “Intrinsic Clearance (Clint), Human liver microsomes” value in series [1] (human) is recorded as 0.6 μL/min/mg of protein. In addition, the “Intrinsic Clearance (Clint), Mouse liver microsomes” value in series [1] (mouse) is 1.1 μL/min/mg of protein.
For orientation: MIC means the lowest concentration found to suppress growth. As a reminder, the melting point is the temperature of the solid-liquid transition. For the compound `O=c1nc(N2CCN(C3CCCCC3)CC2)sc2c([N+](=O)[O-])cc(C(F)(F)F)cc12` [Compound 1, 2-(4-cyclonexylpiperazin-1-yl)-8-nitro-6-(trifluoromethyl)-4H-1,3-benzothiazin-4-one], the melting point is 189 to 191 °C. Moreover, the minimal inhibitory concentration (MIC) with M. tuberculosis H37Rv came to 0.00075 µg/mL (≈ 0.0017 µM). The MIC with M. smegmatis is not above 0.17 µg/mL.
As to `CCCCN1CCN(c2nc(=O)c3cc(C(F)(F)F)cc([N+](=O)[O-])c3s2)CC1` [Compound 3, 2-(4-butylpiperazin-1-yl)-8-nitro-6-(trifluoromethyl)-4H-1,3-benzothiazin-4-one], the melting point was in the range of 119 to 120 °C. In the series with M. tuberculosis H37Rv, the minimal inhibitory concentration (MIC) worked out at 0.0015 µg/mL (≈ 0.0036 µM). In addition, the MIC in the series with M. smegmatis was not above 0.17 µg/mL.
As to `CC(C)CN1CCN(c2nc(=O)c3cc(C(F)(F)F)cc([N+](=O)[O-])c3s2)CC1` [Compound 4], the melting point was in the range of 150 to 153 °C. Moreover, the MIC in the series with M. tuberculosis H37Rv was not above 0.0019 µg/mL. The MIC in the series with M. smegmatis was not above 0.0019 µg/mL. In series [2], the minimum inhibitory concentration (MIC) is 0.031 µg/mL (≈ 0.0744 µM).
In the case of `CCC(C)N1CCN(c2nc(=O)c3cc(C(F)(F)F)cc([N+](=O)[O-])c3s2)CC1` (centres unmarked) [Compound 5, 2-(4-sec-butylpiperazin-1-yl)-8-nitro-6-(trifluoromethyl)-4H-1,3-benzothiazin-4-one], the melting point lay in the range of 127 to 128 °C. In addition, the MIC in the series on M. tuberculosis H37Rv was 0.00037 µg/mL (≈ 0.000889 µM). Besides, the MIC in the series with M. smegmatis is not above 0.0019 µg/mL. In series [2], the MIC amounted to 0.062 µg/mL (≈ 0.149 µM).
In turn, `O=c1nc(N2CCN(CCC3CCCCC3)CC2)sc2c([N+](=O)[O-])cc(C(F)(F)F)cc12` [Compound 6, 2-[4-(2-cyclohexylethyl)piperazin-1-yl]-8-nitro-6-(trifluoromethyl)-4H-1,3-benzothiazin-4-one] came in with a melting point of 175 to 177 °C. Further, the MIC in the series with M. tuberculosis H37Rv is not above 0.00019 µg/mL. The MIC in the series with M. smegmatis is not above 0.0019 µg/mL. Also, the minimal inhibitory concentration (MIC) in series [2] was 0.125 µg/mL (≈ 0.266 µM).
The matching figures for `CCCC(C)N1CCN(c2nc(=O)c3cc(C(F)(F)F)cc([N+](=O)[O-])c3s2)CC1` (centres unmarked) [Compound 7, 2-[4-(1-methylbutyl)piperazin-1-yl]-8-nitro-6-(trifluoromethyl)-4H-1,3-benzothiazin-4-one]: 132 to 133 °C, not above 0.00019 µg/mL, not above 0.0019 µg/mL and 0.125 µg/mL (≈ 0.29 µM).
Compound `CCCCCCCN1CCN(c2nc(=O)c3cc(C(F)(F)F)cc([N+](=O)[O-])c3s2)CC1` [Compound 8, 2-(4-heptylpiperazin-1-yl)-8-nitro-6-(trifluoromethyl)-4H-1,3-benzothiazin-4-one] showed a melting point of 125 to 127 °C. Also, the MIC in the series with M. tuberculosis H37Rv was not above 0.00019 µg/mL. Also, the MIC in the series with M. smegmatis was not above 0.0019 µg/mL. Moreover, in series [2], the minimum inhibitory concentration (MIC) amounted to 0.125 µg/mL (≈ 0.273 µM). Moreover, in series [3], the “Reduction of the CFU load in the lungs and spleens compared to treatment with BTZ043” value is recorded as “significantly more efficacious”.
Regarding `O=c1nc(N2CCN(Cc3ccncc3)CC2)sc2c([N+](=O)[O-])cc(C(F)(F)F)cc12` [Compound 9, 8-nitro-2-[4-(pyridin-4-ylmethyl)piperazin-1-yl]-6-(trifluoromethyl)-4H-1,3-benzothiazin-4-one], the melting point lay in the range of 200 to 202 °C. For the same compound, the MIC in the series on M. tuberculosis H37Rv worked out at 0.015 µg/mL (≈ 0.0332 µM). In addition, the minimum inhibitory concentration (MIC) with M. smegmatis came to 0.062 µg/mL (≈ 0.137 µM). The minimal inhibitory concentration (MIC) in series [2] stood at 0.125 µg/mL (≈ 0.277 µM).
The like results for `O=c1nc(N2CCN(CCCCOc3ccccc3)CC2)sc2c([N+](=O)[O-])cc(C(F)(F)F)cc12` [Compound 10, 8-nitro-2-[4-(4-phenoxybutyl)piperazin-1-yl]-6-(trifluoromethyl)-4H-1,3-benzothiazin-4-one] were, in that order, 256 to 258 °C, 0.0015 µg/mL (≈ 0.00295 µM), not above 0.0019 µg/mL and not above 0.0019 µg/mL.
The like results for `COCCCN1CCN(c2nc(=O)c3cc(C(F)(F)F)cc([N+](=O)[O-])c3s2)CC1` [Compound 11, 2-[4-(3-methoxypropyl)piperazin-1-yl]-8-nitro-6-(trifluoromethyl)-4H-1,3-benzothiazin-4-one] were, in that order, 133 to 134 °C, 0.00375 µg/mL (≈ 0.00867 µM), 0.031 µg/mL (≈ 0.0717 µM) and 0.25 µg/mL (≈ 0.578 µM).
The compound `CCCCCN1CCN(c2nc(=O)c3cc(C(F)(F)F)cc([N+](=O)[O-])c3s2)CC1` [Compound 12] returned a melting point of 133 to 134 °C. Further, the minimum inhibitory concentration (MIC) in the series on M. tuberculosis H37Rv was determined as 0.00037 µg/mL (≈ 0.00086 µM). In addition, in the series with M. smegmatis, the MIC was not above 0.0019 µg/mL. The MIC in series [2] stood at 0.015 µg/mL (≈ 0.0348 µM).
The like results for `CCC(CC)N1CCN(c2nc(=O)c3cc(C(F)(F)F)cc([N+](=O)[O-])c3s2)CC1` [Compound 13, 2-[4-(1-ethylpropyl)piperazin-1-yl]-8-nitro-6-(trifluoromethyl)-4H-1,3-benzothiazin-4-one] were, in that order, 152 to 153 °C, 0.00037 µg/mL (≈ 0.00086 µM), not above 0.0019 µg/mL and not above 0.0019 µg/mL.
The like results for `O=c1nc(N2CCN(CCCC3CCCCC3)CC2)sc2c([N+](=O)[O-])cc(C(F)(F)F)cc12` [Compound 14, 2-[4-(3-cyclohexylpropyl)piperazin-1-yl]-8-nitro-6-(trifluoromethyl)-4H-1,3-benzothiazin-4-one] were, in that order, 145 to 147 °C, not above 0.0019 µg/mL, not above 0.0019 µg/mL and 0.75 µg/mL (≈ 1.55 µM).
The matching figures for `O=c1nc(N2CCN(C34CC5CC(CC(C5)C3)C4)CC2)sc2c([N+](=O)[O-])cc(C(F)(F)F)cc12` [Compound 15, 2-[4-(1-adamantyl)piperazin-1-yl]-8-nitro-6-(trifluoromethyl)-4H-1,3-benzothiazin-4-one]: 236 to 238 °C, 0.015 µg/mL (≈ 0.0303 µM), 0.062 µg/mL (≈ 0.125 µM) and less than 0.5 µg/mL.
`O=c1nc(N2CCN(CCOCc3ccccc3)CC2)sc2c([N+](=O)[O-])cc(C(F)(F)F)cc12` [Compound 16, 2-{4-[2-(benzyloxy)ethyl]piperazin-1-yl}-8-nitro-6-(trifluoromethyl)-4H-1,3-benzothiazin-4-one] showed a melting point of 117 to 119 °C. For the same compound, in the series with M. tuberculosis H37Rv, the MIC was 0.019 µg/mL (≈ 0.0384 µM). The MIC in the series on M. smegmatis is 0.031 µg/mL (≈ 0.0627 µM). In series [2], the MIC is less than 0.5 µg/mL.
Turning to `O=c1nc(N2CCN(CCCC3(c4ccc(F)cc4)OCCO3)CC2)sc2c([N+](=O)[O-])cc(C(F)(F)F)cc12` [Compound 17, 2-(4-{3-[2-(4-fluorophenyl)-1,3-dioxolan-2-yl]propyl}piperazin-1-yl)-8-nitro-6-(trifluoromethyl)-4H-1,3-benzothiazin-4-one], the melting point was 152 to 154 °C. Further, in the series on M. tuberculosis H37Rv, the MIC was 0.0375 µg/mL (≈ 0.066 µM). For the same compound, in the series on M. smegmatis, the MIC amounted to 0.00375 µg/mL (≈ 0.0066 µM). Also, the minimum inhibitory concentration (MIC) in series [2] worked out at 0.25 µg/mL (≈ 0.44 µM).
For orientation: LD50 means the dose at which mortality reaches 50%. With `O=c1nc(N2CCN(CCCOc3ccc(F)cc3)CC2)sc2c([N+](=O)[O-])cc(C(F)(F)F)cc12` [Compound 18, 2-{4-[3-(4-fluorophenoxy)propyl]piperazin-1-yl}-8-nitro-6-(trifluoromethyl)-4H-1,3-benzothiazin-4-one], the values for the MIC (in the series on M. tuberculosis H37Rv; with M. smegmatis; in series [2]) were not above 0.0019 µg/mL, not above 0.0019 µg/mL and 0.25 µg/mL (≈ 0.488 µM), respectively. The LD50 at 7 days in series [4] is more than 2000 mg/kg.
For `CCCN1CCN(c2nc(=O)c3cc(C(F)(F)F)cc([N+](=O)[O-])c3s2)CC1` [Compound 19, 2-(4-propylpiperazin-1-yl)-8-nitro-6-(tfluoromethyl)-4H-1,3-benzothiazin-4-one], the MIC in the series with M. tuberculosis H37Rv came out at 0.0037 µg/mL (≈ 0.00919 µM). Besides, the MIC in the series on M. smegmatis was not above 0.19 µg/mL. The MIC in series [2] turned out to be 0.25 µg/mL (≈ 0.621 µM). In series [5], the “Log of CFU lungs” value is on record as 4.63; the “Medium longevity (days) M ± SEM” value was “Alive at sacrifice”; the “Result of treatment, macroscopic condition of the lungs” value is given as “marked improvement”.
On to `O=c1nc(N2CCN(CCCOc3ccc(F)cc3)CC2)sc2c([N+](=O)[O-])cc(Cl)cc12` [Compound 20, 6-chloro-2-{4-[3-(4-fluorophenoxy)propyl]piperazin-1-yl}-8-nitro-4H-1,3-benzothiazin-4-one], for which the melting point was in the range of 192 to 194 °C. For the same compound, the minimal inhibitory concentration (MIC) with M. tuberculosis H37Rv is not above 0.0019 µg/mL. For the same compound, in the series on M. smegmatis, the MIC was not above 0.0019 µg/mL. Further, the minimum inhibitory concentration (MIC) in series [2] is 0.0031 µg/mL (≈ 0.00647 µM).
Take `O=c1nc(N2CCN(CCCC3CCCCC3)CC2)sc2c([N+](=O)[O-])cc(Cl)cc12` [Compound 21, 6-chloro-2-[4-(3-cyclohexylpropyl)piperazin-1-yl]-8-nitro-4H-1,3-benzothiazin-4-one]: the melting point fell in the range of 194 to 195 °C. Moreover, the MIC in the series with M. tuberculosis H37Rv is not above 0.0019 µg/mL. For the same compound, the MIC in the series with M. smegmatis was not above 0.0019 µg/mL. For the same compound, the MIC in series [2] turned out to be 0.062 µg/mL (≈ 0.137 µM).
`NNC(=O)c1ccncc1` [Izoniazid, Isoniazid, reference compound]: in series [5], the “Log of CFU lungs” value came out at 4.34; the “Medium longevity (days) M ± SEM” value is given as “Alive at sacrifice”; the “Result of treatment, macroscopic condition of the lungs” value is “marked improvement”.
